Source: patent US20240373852A1, “COMPOSITION FOR ALLEVIATING DROUGHT STRESS COMPRISING AMINO ACID” (CJ CheilJedang Corporation, priority 2022, published 2024)

System: Arabidopsis thaliana
Assay: Drought stress alleviation plate assay, single amino acid spray on Arabidopsis thaliana seedlings on PEG-treated medium
Assay type: in vivo
Settings: drought stress-induced medium (PEG 20% treated); amino acid aqueous solution 0.05% (w/w) or 0.1% (w/w) sprayed 1 ml/plate, 3 days intervals, 4 times; compared to water or A company's product (AP)
Text: In order to select an individual amino acid having function in alleviating drought stress among 20 kinds of amino acids (histidine, sodium glutamate, proline, threonine, tryptophan, valine, alanine, arginine, asparagine, aspartic acid, cysteine, glutamine, glycine, leucine, lysine, methionine, phenylalanine, serine, or tyrosine), Arabidopsis thaliana was trans-planted in drought stress-induced medium, and an amino acid aqueous solution comprising each amino acid (0.05% (w/w) or 0.1% (w/w)) was treated, then the fresh weight of the above-ground tissue and growth and development of the root (main root) of Arabidopsis thaliana were investigated.
Arabidopsis thaliana seeds (provided by Konkuk University plant development genomics lab) were put in a 2% Sodium hypochlorite, 0.05% Tween 20 solution and sterilized for 1 minute, then washed with water 4 times. The sterilized seeds were incubated in dark and cold (4 degrees) for 3 days.
Arabidopsis thaliana seeds were sown in a plant growth medium (½ MS; Murashige and Skoog Medium, Duchefa Biochem), and grow for 6 days in the growth chamber. The growth condition of plants is as follows: • Temperature: 23° C.; humidity: 60˜65%; light: light 16 hours/dark 8 hours
The drought stress-induced medium was prepared by the method as below.
After 24 hours, the PEG solution was removed and dried at a room temperature under a sterile condition.
6 days-old Arabidopsis thaliana seedlings grown in normal plant growth medium were transferred to the drought stress-induced medium (PEG 20% treated) or a control medium (PEG untreated).
Immediately after transfer seedlings on the drought-stress induced medium, an individual amino acid aqueous solution (0.05% (w/w) or 0.1% (w/w)) was sprayed on the plants; 1 ml/plate, 3 days intervals, for 4 times. As a control group, instead of the amino acid aqueous solution, water (DW, distilled water) or A company's drought stress-alleviating product (AP product, comprising Pro 9%, MSG 2.5%, Asp 0.9%) (Ajinomoto Fertilizers, Amino proline) was sprayed by the same method.
After that, the fresh weight, and root growth and development of Arabidopsis thaliana were investigated.

| Compound | growth and development of above- and below-ground tissues (fresh weight of above-ground tissues, root length) |
| --- | --- |
| C[C@H](N)C(=O)O [alanine] | excellent |
| N=C(N)NCCC[C@H](N)C(=O)O [arginine] | excellent |
| N[C@@H](CC(=O)O)C(=O)O [aspartic acid] | excellent |
| NC(=O)CC[C@H](N)C(=O)O [glutamine] | excellent |
| NCC(=O)O [glycine] | excellent |
| N[C@@H](Cc1c[nH]cn1)C(=O)O [histidine] | excellent |
| N[C@@H](Cc1ccccc1)C(=O)O [phenylalanine] | excellent |
| N[C@@H](CCC(=O)[O-])C(=O)[O-].[Na+].[Na+] [sodium glutamate] | excellent |
| N[C@@H](Cc1c[nH]c2ccccc12)C(=O)O [tryptophan] | excellent |
| CC(C)[C@H](N)C(=O)O [valine] | excellent |

Same assay, conditions: laboratory condition (plate assay); conclusion from Example 1-2 and 1-3

| Compound | function in alleviating drought stress and promoting plant growth |
| --- | --- |
| C[C@H](N)C(=O)O [alanine] | positive function |
| N=C(N)NCCC[C@H](N)C(=O)O [arginine] | positive function |
| N[C@@H](CC(=O)O)C(=O)O [aspartic acid] | positive function |
| NC(=O)CC[C@H](N)C(=O)O [glutamine] | positive function |
| NCC(=O)O [glycine] | positive function |
| N[C@@H](Cc1c[nH]cn1)C(=O)O [histidine] | positive function |
| N[C@@H](Cc1ccccc1)C(=O)O [phenylalanine] | positive function |
| N[C@@H](CCC(=O)[O-])C(=O)[O-].[Na+].[Na+] [sodium glutamate] | positive function |
| N[C@@H](Cc1c[nH]c2ccccc12)C(=O)O [tryptophan] | positive function |
